# Measurements published in patent US20260216383A1, “RADIOLABELED MEDICINE” (National University Corporation Chiba University, priority 2022, published 2026).
# System: BBMVs (kidney brush border membrane vesicles)
# Experiment: Incubation test with BBMVs (kidney brush border membrane vesicles)
# Type: in vitro ADME, male Wistar rat
# Settings: 37° C., two hours
# Experimental: Kidney brush border membrane vesicles (BBMVs) were prepared from the kidney of a male Wistar rat (200 to 250 g) in accordance with the method of Hori et al. [Biochemical Pharmacology 45: 1763-1768, 1993]. All the operations were carried out on ice. From four to five times the mass of 300 mM mannitol and a 12 mM tris hydrochloride buffer solution (pH 7.1) containing 5 mM EGTA were added to the cortex, and the mixture was homogenized with a Polytron Homogenizer PT-3100 (manufactured by Kinematica GmgH) for two minutes, and diluted with the same buffer solution, so as to obtain a 10% homogenate. […] The BBMVs thus prepared were evaluated for the incorporation of the lysosome enzyme by measuring the activity of β-galactosidase as a lysosome marker enzyme using p-nitrophenyl-β-D-galacto-pyranoside [Plant Physiology 55: 94-98, 1975]. Further, the activities of γ-glutamyl transferase and aminopeptidase were measured by using L-γ-glutamyl-p-nitroanilide and L-leucine-p-nitroanilide in accordance with the methods of Glossmann et al. [FEBS Letters 19: 340-344, 1972], Kramers et al. [European Journal of Biochemistry 99: 345-351, 1979].
# The incubation test of BBMVs and a ^67Ga-labeled low-molecular model substrate was carried out in the following manner. […] The supernatant obtained was analyzed by HPLC at a flow rate of 1 mL/min. using an Imtakt Unison US-C18 150 mm×4.6 mm column. […]
substance,measurement,setting,value
^67Ga-NOTA-Phe-Gly-Lys(Bzo) [^67Ga-labeled NOTA-Phe-Gly-Lys(Bzo)],"amount of radioactive metabolite released by BBMVs, compared with ^67Ga-labeled NOTA-Met-Val-Lys(Bzo)",,lower than the amount of ^67Ga-labeled-NOTA-Met released from ^67Ga-labeled NOTA-Met-Val-Lys(Bzo)
same,radioactive metabolite peak observed after incubation with BBMVs,HPLC of supernatant,"A peak of ^67Ga-labeled-NOTA-Phe-Gly was observed, not a peak of ^67Ga-labeled-NOTA-Phe"
